# Source: paper PMC10879502, “Linking ATP and allosteric sites to achieve superadditive binding with bivalent EGFR kinase inhibitors” (Communications Chemistry, 2024)
# Assays:
# Experiment in all cases: KINOMEscan
# Assay type in all cases: binding
# Conditions in all cases: 1 μM
# ARK5 = ARK5 (Homo sapiens, UniProt O60285)
# AURKA = AURKA (Homo sapiens, UniProt O14965)
# AURKC = AURKC (Homo sapiens, UniProt Q9UQB9)
# BMPR1A = BMPR1A (Homo sapiens, UniProt P36894)
# BMPR2 = target: T1, BMPR2 (Homo sapiens, UniProt Q13873)
# T1 construct: purchased Eurofins DiscoverX Corporation (KINOMEscan)
# BRSK1 = target: T2, BRSK1 (Homo sapiens, UniProt Q8TDC3)
# T2 construct: purchased Eurofins DiscoverX Corporation (KINOMEscan)
# BUB1 = target: T3, BUB1 (Homo sapiens, UniProt O43683)
# T3 construct: purchased Eurofins DiscoverX Corporation (KINOMEscan)
# CAMK2D = target: T4, CAMK2D (Homo sapiens, UniProt Q13557)
# T4 construct: purchased Eurofins DiscoverX Corporation (KINOMEscan)
# CDC2L2 = target: T5, CDC2L2 (Homo sapiens, UniProt Q9UQ88)
# T5 construct: purchased Eurofins DiscoverX Corporation (KINOMEscan)
# CDKL3 = CDKL3 (Homo sapiens, UniProt Q8IVW4)
# DRAK1 = target: T6, DRAK1 (Homo sapiens, UniProt Q9UEE5)
# T6 construct: purchased Eurofins DiscoverX Corporation
# EGFR(E746-A750del) = EGFR(E746-A750del) (Homo sapiens, UniProt P00533, DEL746-750)
# EPHB2 = EPHB2 (Homo sapiens, UniProt P29323)
# EPHB4 = EPHB4 (Homo sapiens, UniProt P54760)
# FLT3(D835V) = FLT3(D835V) (Homo sapiens, UniProt P36888, D835V)
# HUNK = target: T7, HUNK (Homo sapiens, UniProt P57058)
# T7 construct: purchased Eurofins DiscoverX (KINOMEscan)
# ITK = target: T8, ITK (Homo sapiens, UniProt Q08881)
# T8 construct: purchased Eurofins DiscoverX (KINOMEscan)
# [1] = target: T9, JAK1(JH2domain-pseudokinase) (Homo sapiens, UniProt P23458)
# T9 construct: JAK1(JH2domain-pseudokinase); purchased Eurofins DiscoverX (KINOMEscan)
# LRRK2(G2019S) = target: T10, LRRK2(G2019S) (Homo sapiens, UniProt Q5S007, G2019S)
# T10 construct: purchased Eurofins DiscoverX Corporation
# MAP3K4 = target: T11, MAP3K4 (Homo sapiens, UniProt Q9Y6R4)
# T11 construct: purchased Eurofins DiscoverX Corporation
# MELK = target: T12, MELK (Homo sapiens, UniProt Q14680)
# T12 construct: purchased Eurofins DiscoverX Corporation
# MKNK2 = target: T13, MKNK2 (Homo sapiens, UniProt Q9HBH9)
# T13 construct: purchased Eurofins DiscoverX Corporation
# MRCKB = target: T14, MRCKB (Homo sapiens, UniProt Q9Y5S2)
# T14 construct: purchased Eurofins DiscoverX Corporation
# NEK3 = target: T15, NEK3 (Homo sapiens, UniProt P51956)
# T15 construct: purchased Eurofins DiscoverX Corporation
# PAK7 = PAK7 (Homo sapiens, UniProt Q9P286)
# PCTK2 = PCTK2 (Homo sapiens, UniProt Q00537)
# PFPK5(P.falciparum) = PFPK5(P.falciparum) (Plasmodium falciparum, UniProt P61075)
# PIK3CA(H1047Y) = PIK3CA(H1047Y) (Homo sapiens, UniProt P42336, H1047Y)
# PKAC-beta = PKAC-beta (Homo sapiens, UniProt P22694)
# PRKCE = PRKCE (Homo sapiens, UniProt Q02156)
# RET = RET (Homo sapiens, UniProt P07949)
# RET(V804M) = RET(V804M) (Homo sapiens, UniProt P07949, V804M)
# ROS1 = ROS1 (Homo sapiens, UniProt P08922)
# [2] = target: RPS6KA4(Kin.Dom.2-C-terminal) (Homo sapiens, UniProt O75676)
# SIK2 = SIK2 (Homo sapiens, UniProt Q9H0K1)
# TLK1 = target: T16, TLK1 (Homo sapiens, UniProt Q9UKI8)
# T16 construct: purchased Eurofins DiscoverX Corporation
# TNIK = target: T17, TNIK (Homo sapiens, UniProt Q9UKE5)
# T17 construct: purchased Eurofins DiscoverX Corporation
# TNNI3K = target: T18, TNNI3K (Homo sapiens, UniProt Q59H18)
# T18 construct: purchased Eurofins DiscoverX Corporation
# TRKB = target: T19, TRKB (Homo sapiens, UniProt Q16620)
# T19 construct: purchased Eurofins DiscoverX Corporation
# WEE2 = WEE2 (Homo sapiens, UniProt P0C1S8)
# YANK2 = YANK2 (Homo sapiens, UniProt Q9NY57)
# ZAK = ZAK (Homo sapiens, UniProt Q9NYL2)
# Sequence of CDKL3 (Q8IVW4 whole entry): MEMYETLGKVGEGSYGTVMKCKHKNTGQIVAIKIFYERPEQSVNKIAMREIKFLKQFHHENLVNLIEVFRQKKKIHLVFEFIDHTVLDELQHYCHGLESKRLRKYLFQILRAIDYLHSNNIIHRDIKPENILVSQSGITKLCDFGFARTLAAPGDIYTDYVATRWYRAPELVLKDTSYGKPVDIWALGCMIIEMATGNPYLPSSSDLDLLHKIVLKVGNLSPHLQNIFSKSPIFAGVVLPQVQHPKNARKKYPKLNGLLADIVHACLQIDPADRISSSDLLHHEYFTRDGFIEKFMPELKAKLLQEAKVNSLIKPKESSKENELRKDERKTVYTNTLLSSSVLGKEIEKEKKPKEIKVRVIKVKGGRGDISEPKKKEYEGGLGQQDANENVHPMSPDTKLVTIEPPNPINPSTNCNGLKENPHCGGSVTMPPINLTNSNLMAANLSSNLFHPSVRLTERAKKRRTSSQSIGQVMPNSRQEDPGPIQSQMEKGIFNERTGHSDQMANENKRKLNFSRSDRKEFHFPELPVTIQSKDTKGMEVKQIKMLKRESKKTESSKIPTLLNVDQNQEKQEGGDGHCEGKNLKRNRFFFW
# Sequence of WEE2 (P0C1S8 whole entry): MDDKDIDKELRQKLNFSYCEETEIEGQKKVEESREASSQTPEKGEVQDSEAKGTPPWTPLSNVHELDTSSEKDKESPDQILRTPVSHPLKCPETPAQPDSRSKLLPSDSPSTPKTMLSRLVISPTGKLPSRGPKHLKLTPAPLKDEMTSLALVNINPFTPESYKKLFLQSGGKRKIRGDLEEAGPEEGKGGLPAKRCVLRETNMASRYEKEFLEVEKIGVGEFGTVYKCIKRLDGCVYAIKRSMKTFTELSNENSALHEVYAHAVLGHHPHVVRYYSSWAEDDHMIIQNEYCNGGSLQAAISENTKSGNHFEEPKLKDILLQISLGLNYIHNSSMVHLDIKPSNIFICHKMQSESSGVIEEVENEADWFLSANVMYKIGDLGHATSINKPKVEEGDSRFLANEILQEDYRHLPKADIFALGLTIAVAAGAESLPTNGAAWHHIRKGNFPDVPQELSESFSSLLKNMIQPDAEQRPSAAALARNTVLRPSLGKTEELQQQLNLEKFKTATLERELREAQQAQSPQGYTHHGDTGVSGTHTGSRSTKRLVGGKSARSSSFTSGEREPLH
# Sequence of AURKC (Q9UQB9 whole entry): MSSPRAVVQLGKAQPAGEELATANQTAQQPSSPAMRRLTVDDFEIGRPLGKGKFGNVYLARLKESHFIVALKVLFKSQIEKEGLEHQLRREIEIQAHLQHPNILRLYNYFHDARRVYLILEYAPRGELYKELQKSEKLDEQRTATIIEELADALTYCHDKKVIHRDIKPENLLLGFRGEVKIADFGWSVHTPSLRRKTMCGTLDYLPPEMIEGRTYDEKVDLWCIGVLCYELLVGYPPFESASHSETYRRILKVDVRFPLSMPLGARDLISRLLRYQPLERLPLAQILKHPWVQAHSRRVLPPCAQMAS
# Sequence of ARK5 (O60285 whole entry): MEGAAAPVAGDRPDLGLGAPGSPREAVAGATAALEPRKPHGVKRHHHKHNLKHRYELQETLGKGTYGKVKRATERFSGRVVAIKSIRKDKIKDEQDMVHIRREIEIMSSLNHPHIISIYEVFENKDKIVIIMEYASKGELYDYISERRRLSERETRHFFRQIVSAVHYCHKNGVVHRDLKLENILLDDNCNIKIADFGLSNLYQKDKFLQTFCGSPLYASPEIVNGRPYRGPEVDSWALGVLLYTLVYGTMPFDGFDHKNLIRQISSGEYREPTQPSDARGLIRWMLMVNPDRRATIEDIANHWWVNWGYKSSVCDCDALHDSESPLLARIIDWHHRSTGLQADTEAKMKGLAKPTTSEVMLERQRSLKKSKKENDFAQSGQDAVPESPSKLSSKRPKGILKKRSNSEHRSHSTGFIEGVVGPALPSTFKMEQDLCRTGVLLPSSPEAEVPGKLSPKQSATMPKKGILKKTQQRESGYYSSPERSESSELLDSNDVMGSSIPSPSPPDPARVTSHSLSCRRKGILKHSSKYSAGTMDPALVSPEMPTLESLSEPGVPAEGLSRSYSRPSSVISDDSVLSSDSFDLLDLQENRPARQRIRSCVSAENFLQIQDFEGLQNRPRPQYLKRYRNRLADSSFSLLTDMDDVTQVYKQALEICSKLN
# Sequence of ROS1 (P08922 28-2347): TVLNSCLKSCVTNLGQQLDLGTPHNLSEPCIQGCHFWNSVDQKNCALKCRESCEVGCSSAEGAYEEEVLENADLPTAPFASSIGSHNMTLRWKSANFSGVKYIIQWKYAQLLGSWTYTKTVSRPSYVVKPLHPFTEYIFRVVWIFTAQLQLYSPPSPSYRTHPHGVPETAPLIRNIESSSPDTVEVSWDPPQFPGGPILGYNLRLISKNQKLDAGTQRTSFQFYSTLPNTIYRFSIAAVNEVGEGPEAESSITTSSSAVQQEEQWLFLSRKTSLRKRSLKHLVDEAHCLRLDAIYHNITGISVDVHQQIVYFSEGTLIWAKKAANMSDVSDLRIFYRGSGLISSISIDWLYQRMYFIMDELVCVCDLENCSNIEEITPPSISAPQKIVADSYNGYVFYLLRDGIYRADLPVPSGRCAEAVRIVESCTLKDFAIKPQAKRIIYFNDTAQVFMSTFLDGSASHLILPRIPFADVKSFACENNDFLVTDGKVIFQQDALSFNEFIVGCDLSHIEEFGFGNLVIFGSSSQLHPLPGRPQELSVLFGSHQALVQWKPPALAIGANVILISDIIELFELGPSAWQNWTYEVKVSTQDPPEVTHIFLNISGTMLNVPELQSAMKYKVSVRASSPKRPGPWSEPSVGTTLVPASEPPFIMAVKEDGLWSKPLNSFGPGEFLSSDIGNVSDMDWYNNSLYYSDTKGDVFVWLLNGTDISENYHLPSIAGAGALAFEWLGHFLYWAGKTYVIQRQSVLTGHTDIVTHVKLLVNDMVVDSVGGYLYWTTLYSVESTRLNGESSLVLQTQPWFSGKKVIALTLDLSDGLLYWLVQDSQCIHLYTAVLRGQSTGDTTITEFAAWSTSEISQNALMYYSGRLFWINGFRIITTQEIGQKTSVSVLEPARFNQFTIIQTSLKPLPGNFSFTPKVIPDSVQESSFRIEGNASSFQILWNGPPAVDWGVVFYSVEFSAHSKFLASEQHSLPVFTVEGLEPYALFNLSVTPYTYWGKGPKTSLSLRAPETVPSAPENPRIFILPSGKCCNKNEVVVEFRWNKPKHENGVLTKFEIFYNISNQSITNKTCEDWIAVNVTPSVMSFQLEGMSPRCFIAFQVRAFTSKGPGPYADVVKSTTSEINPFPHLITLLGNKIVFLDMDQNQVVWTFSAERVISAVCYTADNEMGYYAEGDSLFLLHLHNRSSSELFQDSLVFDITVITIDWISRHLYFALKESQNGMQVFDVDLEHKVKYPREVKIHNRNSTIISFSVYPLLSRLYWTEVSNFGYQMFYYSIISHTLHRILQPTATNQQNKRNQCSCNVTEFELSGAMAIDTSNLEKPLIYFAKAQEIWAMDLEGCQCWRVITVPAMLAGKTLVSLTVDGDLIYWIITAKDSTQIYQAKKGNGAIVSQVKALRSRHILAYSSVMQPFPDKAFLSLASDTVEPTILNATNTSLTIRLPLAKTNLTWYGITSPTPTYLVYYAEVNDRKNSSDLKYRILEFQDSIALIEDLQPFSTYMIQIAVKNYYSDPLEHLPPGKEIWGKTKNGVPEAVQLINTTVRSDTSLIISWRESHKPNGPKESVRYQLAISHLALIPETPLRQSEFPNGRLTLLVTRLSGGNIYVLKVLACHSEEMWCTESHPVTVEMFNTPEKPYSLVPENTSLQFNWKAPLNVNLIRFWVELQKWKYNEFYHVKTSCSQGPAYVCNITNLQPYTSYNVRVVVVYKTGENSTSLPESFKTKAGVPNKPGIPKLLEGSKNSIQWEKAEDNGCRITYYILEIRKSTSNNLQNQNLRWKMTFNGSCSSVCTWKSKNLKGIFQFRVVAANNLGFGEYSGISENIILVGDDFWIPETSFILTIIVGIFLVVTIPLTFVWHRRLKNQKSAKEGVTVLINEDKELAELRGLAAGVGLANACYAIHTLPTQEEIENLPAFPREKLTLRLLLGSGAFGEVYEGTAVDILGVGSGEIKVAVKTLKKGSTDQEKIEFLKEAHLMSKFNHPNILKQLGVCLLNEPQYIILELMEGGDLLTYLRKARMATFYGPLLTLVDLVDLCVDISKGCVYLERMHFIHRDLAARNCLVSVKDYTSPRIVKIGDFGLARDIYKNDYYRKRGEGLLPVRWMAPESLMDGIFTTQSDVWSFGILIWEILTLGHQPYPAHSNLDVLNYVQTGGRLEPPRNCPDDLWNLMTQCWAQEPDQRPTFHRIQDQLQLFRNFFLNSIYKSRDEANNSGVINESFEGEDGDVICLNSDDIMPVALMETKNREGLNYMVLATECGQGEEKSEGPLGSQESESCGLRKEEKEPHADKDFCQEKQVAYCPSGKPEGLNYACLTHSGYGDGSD
# T13 sequence (Q9HBH9 whole entry): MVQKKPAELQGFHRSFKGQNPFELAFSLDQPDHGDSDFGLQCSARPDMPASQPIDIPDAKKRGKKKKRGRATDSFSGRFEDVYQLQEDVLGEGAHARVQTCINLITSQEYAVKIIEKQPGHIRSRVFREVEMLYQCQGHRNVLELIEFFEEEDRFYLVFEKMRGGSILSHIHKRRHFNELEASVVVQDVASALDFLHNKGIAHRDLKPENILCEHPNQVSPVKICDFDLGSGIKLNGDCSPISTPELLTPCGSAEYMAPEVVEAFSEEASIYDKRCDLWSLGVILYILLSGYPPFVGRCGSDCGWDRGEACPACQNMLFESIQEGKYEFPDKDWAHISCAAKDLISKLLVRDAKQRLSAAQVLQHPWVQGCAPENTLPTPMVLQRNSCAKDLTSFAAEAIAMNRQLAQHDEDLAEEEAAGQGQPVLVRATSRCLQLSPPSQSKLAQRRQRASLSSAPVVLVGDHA
structure (smiles),measurement,setting,value
C=CC(=O)Nc1ccc(OC)c(Nc2cc(-c3[nH]c(CC)nc3-c3cccc(NC(=O)c4cccc5c4NC(=O)c4ccccc4N5)c3)ccn2)c1 [Compound 4],POC,ARK5,100% of control
same,POC,AURKA,90% of control
same,POC,AURKC,100% of control
same,POC,BMPR1A,85% of control
same,POC,BMPR2,88% of control
same,POC,BRSK1,100% of control
same,POC,BUB1,100% of control
same,POC,CAMK2D,88% of control
same,POC,CDC2L2,91% of control
same,POC,CDKL3,100% of control
same,POC,DRAK1,84% of control
same,POC,EGFR(E746-A750del),13% of control
same,POC,EPHB2,100% of control
same,POC,EPHB4,100% of control
same,POC,FLT3(D835V),100% of control
same,POC,HUNK,32% of control
same,POC,ITK,87% of control
same,POC,[1],83% of control
same,POC,LRRK2(G2019S),100% of control
same,POC,MAP3K4,100% of control
same,POC,MELK,100% of control
same,POC,MKNK2,100% of control
same,POC,MRCKB,1.7% of control
same,POC,NEK3,100% of control
same,POC,PAK7,77% of control
same,POC,PCTK2,100% of control
same,POC,PFPK5(P.falciparum),100% of control
same,POC,PIK3CA(H1047Y),66% of control
same,POC,PKAC-beta,98% of control
same,POC,PRKCE,100% of control
same,POC,RET,99% of control
same,POC,RET(V804M),91% of control
same,POC,ROS1,80% of control
same,POC,[2],75% of control
same,POC,SIK2,100% of control
same,POC,TLK1,87% of control
same,POC,TNIK,33% of control
same,POC,TNNI3K,89% of control
same,POC,TRKB,100% of control
same,POC,WEE2,98% of control
same,POC,YANK2,63% of control
same,POC,ZAK,87% of control
